From article PMC3466212, “Novel AChE Inhibitors for Sustainable Insecticide Resistance Management” (PLoS ONE, 2012)

Tests used:
[1] = tested on: C. pipiens Slab strain larvae; assay: Larval bioassay, Slab strain (OP-susceptible); settings: for Mortality at 300 µM, Slab: fourth-instar larvae, 24 hours exposure
Source text: Three C. pipiens strains were used: the susceptible reference Slab strain, homozygous for ace-1 ^S [39], the resistant reference SR strain, carrying the genetical background of Slab but homozygous for the G119S mutation, allele ace-1 ^R [21] and the Ducos strain, carrying the genetical background of Slab but homozygous for an ace-1 duplication, with one ace-1^S and ace-1^R copy in tandem. Culex pipiens heterozygous larvae (Slab×SR) were obtained by crossing Slab males and SR females. Two A. gambiae reference strains (S molecular form) were used: the susceptible strain Kisumu, homozygous for ace-1 ^S, collected in Kenya in 1953 and maintained since then under laboratory conditions and the resistant Acerkis strain, carrying the genetical background of Kisumu but homozygous for an ace-1^R allele from a population collected in Bobo-Dioulasso, Burkina Faso [41].
Insecticidal activity was determined by performing bioassays on fourth-instar larvae as described in [42]. Each compound was dissolved in ethanol. Propoxur (CX) and chlorpyrifos (OP) were used as references. For each compound, we first tested mortality after a 24-hour exposure at 300 µM. […] Mortality data were analyzed by the log-probit program. This program takes into account natural mortality and provides lethal doses (LD) and slopes for each mortality line; it also computes resistance ratios (RR) for each LD, with 95% confidence intervals.

WT AChE1 = WT AChE1 (Culex pipiens, UniProt Q86GC8); assay: AChE assay (Ellman), dose-response on recombinant WT AChE1; format: biochemical; set-up: made in house; host or cells: Drosophila S2 cells; settings: recombinant wild-type C. pipiens AChE1; 15 min incubation; acetylthiocholine; read-out: IC50 WT
Method: (§1) Production of C. pipiens WT and mutated AChE1s in Drosophila S2 cells was already described. The chemical library (ChemBridge, 3,000 compounds) screening was performed in duplicate on G119S recombinant AChE1. Chemicals were made soluble in ethanol or dimethylsulphoxide (DMSO), and then diluted at 300 µM in ethanol for storage. Compounds (30 µM final concentration) were incubated for 15 min at room temperature with 100 µl of G119S recombinant AChE1 then 100 µl of substrate (acetylthiocholine, 1.6 mM, Sigma-Aldrich) was added and the residual activity was quantified by measuring the optical density at 412 nm, as described by Ellman et al.. PTF analogs were analyzed in dose-response experiments (10-fold serial dilutions from 3 mM to 30 nM), using recombinant WT and G119S AChE1 or mosquito head extracts (heads cut from frozen mosquitoes, homogenized in 400 µl PB containing 1% Triton X-100 and cleared by centrifugation at 9,000×g for 3 min). Depending on compound availability, two to five replicates were performed with distinct batches of enzyme. […] IC50 was estimated by nonlinear least square regression. IC50 was also measured on AChE1 from susceptible and resistant mosquito larvae extracts.

G119S AChE1 = biological target: T1, G119S AChE1 (Culex pipiens, UniProt Q86GC8, G247S); assay: biochemical; format: biochemical; settings: recombinant OP-insensitive G119S C. pipiens AChE1; 15 min incubation; acetylthiocholine; read-out: IC50 G119S
T1 construct: made in house; host or cells: Drosophila S2 cells
Method: as §1, with “Compounds (30 µM final concentration) were incubated for 15 min at room temperature with 100 µl of G119S recombinant AChE1 then 100 µl of substrate (acetylthiocholine, 1.6 mM, Sigma-Aldrich) was added and the residual activity was quantified by measuring the optical density at 412 nm, as described by Ellman et al..” left out

[2] = tested on: C. pipiens SR strain larvae; assay: Larval bioassay, SR strain (OP-resistant); settings: for Mortality at 300 µM, SR: fourth-instar larvae, 24 hours exposure
Source text: Three C. pipiens strains were used: the susceptible reference Slab strain, homozygous for ace-1 ^S [39], the resistant reference SR strain, carrying the genetical background of Slab but homozygous for the G119S mutation, allele ace-1 ^R [21] and the Ducos strain, carrying the genetical background of Slab but homozygous for an ace-1 duplication, with one ace-1^S and ace-1^R copy in tandem. Culex pipiens heterozygous larvae (Slab×SR) were obtained by crossing Slab males and SR females.
Insecticidal activity was determined by performing bioassays on fourth-instar larvae as described in [42]. Each compound was dissolved in ethanol. Propoxur (CX) and chlorpyrifos (OP) were used as references. For each compound, we first tested mortality after a 24-hour exposure at 300 µM. […] Mortality data were analyzed by the log-probit program.

| SMILES | Mortality at 300 µM, Slab [1] [%] | IC50 (WT AChE1) [µM] | IC50 (G119S AChE1) [µM] | Mortality at 300 µM, SR [2] [%] | mortality at 300 µM ([1]; Culex pipiens, 24 h, read-out: Mortality at 300 µM, Slab) [%] | mortality at 300 µM ([2]; Culex pipiens, 24 h, read-out: Mortality at 300 µM, SR) [%] |
| --- | --- | --- | --- | --- | --- | --- |
| Cc1ccc(C=C2C(=O)NC(=O)N(c3ccccc3)C2=O)s1 [PTF-68] | 89 | 4 | 5 | 95 |  |  |
| CN1C(=O)C(=Cc2ccc(N3CCCCC3)o2)C(=O)N(C)C1=O [PTF-49] | 13 | 97 | 65.5 | 0 |  |  |
| CN1C(=O)C(=Cc2ccc(-c3cccc(C(=O)O)c3)o2)C(=O)N(C)C1=O [PTF-44] | 0 | 0.6 | 0.6 | 0 |  |  |
| O=C1NC(=O)N(c2ccccc2)C(=O)C1=Cc1ccc(N2CCCCC2)s1 [PTF-70] | 0 | 18 | 6.2 | 0 |  |  |
| CC(=O)c1ccc(-c2ccc(C=C3C(=O)N(C)C(=O)N(C)C3=O)o2)cc1 [PTF-45] | 0 | 3.4 | 1.1 | 0 |  |  |
| Cc1ccc(C=C2C(=O)NC(=S)N(c3ccc(Br)cc3)C2=O)o1 [PTF-37] | 0 | 2120 | 142 | 35 |  |  |
| O=C1NC(=O)N(c2ccccc2)C(=O)C1=Cc1ccc(Br)o1 [PTF-55] | 0 | 17 | 32.6 | 0 |  |  |
| CN1C(=O)C(=Cc2ccc(Sc3ccccc3)o2)C(=O)N(C)C1=O [PTF-47] | 0 | 3 | 1.3 | 0 |  |  |
| O=C1NC(=O)N(c2ccccc2)C(=O)C1=Cc1ccco1 [PTF-54] | 100 | 1390 | 737 | 100 |  |  |
| Cc1ccc(C=C2C(=O)NC(=O)N(c3cccc(Br)c3)C2=O)o1 [PTF-22] | 68 | 1.5 | 1.9 | 97 |  |  |
| O=C1NC(=O)N(c2ccccc2)C(=O)C1=Cc1ccc(N2CCOCC2)s1 [PTF-71] | 0 | 4500 | 2480 | 0 |  |  |
| CCOP(=O)(OCC)Oc1nc(Cl)c(Cl)cc1Cl [Chlorpyrifos-oxon, reference compound] | 100 |  |  | 100 |  |  |
| O=C1NC(=O)N(c2ccccc2)C(=O)C1=Cc1ccc(-c2ccc(C(=O)O)cc2)o1 [PTF-57] | 0 | 11.3 | 5.4 | 0 |  |  |
| C=CCN1C(=O)NC(=O)C(=Cc2ccc(C)o2)C1=O [PTF-1] | 0 | 3 | 2.2 | 0 |  |  |
| Cc1ccc(C=C2C(=O)NC(=O)N(c3cccc(Cl)c3Cl)C2=O)o1 [PTF-21] | 0 | 5 | 4.8 | 0 |  |  |
| Cc1ccc(C=C2C(=O)NC(=S)N(c3ccc(F)cc3)C2=O)o1 [PTF-33] | 16 | 490 | 22 | 77 |  |  |
| COc1ccc(OC)c(N2C(=O)NC(=O)C(=Cc3ccc(C)o3)C2=O)c1 [PTF-14] | 0 | 2 | 2 | 0 |  |  |
| Cc1ccc(C=C2C(=O)NC(=O)N(C3CCCCC3)C2=O)o1 [PTF-2] | 12 | 12.6 | 5.5 | 53 |  |  |
| Cc1ccc(C=C2C(=O)NC(=O)N(CCc3ccc(F)cc3)C2=O)o1 [PTF-19] | 0 | 3.3 | 3.7 | 0 |  |  |
| Cc1cccc(N2C(=O)NC(=O)C(=Cc3ccc(C)o3)C2=O)c1 [PTF-6] | 0 | 4 | 4.4 | 0 |  |  |
| Nc1c2c(nc3ccccc13)CCCC2 [Tacrine, reference compound] |  |  |  |  | 85 | 95 |
| Cc1ccc(C=C2C(=O)NC(=O)N(c3ccc(C(C)C)cc3)C2=O)o1 [PTF-9] | 19 | 132 | 21.5 | 39 |  |  |
| CC(C)(C)N=C1NC(=O)C(=Cc2ccco2)C(=O)N1c1ccccc1 [PTF-65] | 0 | 37 | 22 | 0 |  |  |
| Cc1ccc(C=C2C(=O)NC(=O)N(c3ccccc3F)C2=O)o1 [PTF-18] | 0 | 5.3 | 1.8 | 0 |  |  |
| CN1C(=O)C(=Cc2ccc(N(C)C)o2)C(=O)N(C)C1=O [PTF-41] | 20 | 175 | 132 | 20 |  |  |
| Cc1ccc(C=C2C(=O)NC(=S)N(c3ccc(Cl)cc3)C2=O)o1 [PTF-35] | 5 | 8.7 | 8.7 | 49 |  |  |
| O=C1NC(=O)N(c2ccccc2)C(=O)C1=Cc1ccc(-c2ccccc2C(=O)O)o1 [PTF-59] | 0 | 45.7 | 18.5 | 0 |  |  |
| CCOP(=O)(OCC)Oc1ccc([N+](=O)[O-])cc1 [Paraoxon, reference compound] | 100 |  |  | 100 |  |  |
